The text below walks through data of ChEMBL document CHEMBL4417631, “Oral peptide inhibitors of interleukin-23 receptor and their use to treat inflammatory bowel diseases” (2017).

Where a SMILES comes first, the peptide text is derived from it. [ ]: non-standard residue; d: D form. hLeu = CC(C)CC[C@H](N)C(=O)O

The test addresses T1, Interleukin-23 receptor (Homo sapiens, UniProt Q5VWK5).
T1 sequence (Q5VWK5 whole entry): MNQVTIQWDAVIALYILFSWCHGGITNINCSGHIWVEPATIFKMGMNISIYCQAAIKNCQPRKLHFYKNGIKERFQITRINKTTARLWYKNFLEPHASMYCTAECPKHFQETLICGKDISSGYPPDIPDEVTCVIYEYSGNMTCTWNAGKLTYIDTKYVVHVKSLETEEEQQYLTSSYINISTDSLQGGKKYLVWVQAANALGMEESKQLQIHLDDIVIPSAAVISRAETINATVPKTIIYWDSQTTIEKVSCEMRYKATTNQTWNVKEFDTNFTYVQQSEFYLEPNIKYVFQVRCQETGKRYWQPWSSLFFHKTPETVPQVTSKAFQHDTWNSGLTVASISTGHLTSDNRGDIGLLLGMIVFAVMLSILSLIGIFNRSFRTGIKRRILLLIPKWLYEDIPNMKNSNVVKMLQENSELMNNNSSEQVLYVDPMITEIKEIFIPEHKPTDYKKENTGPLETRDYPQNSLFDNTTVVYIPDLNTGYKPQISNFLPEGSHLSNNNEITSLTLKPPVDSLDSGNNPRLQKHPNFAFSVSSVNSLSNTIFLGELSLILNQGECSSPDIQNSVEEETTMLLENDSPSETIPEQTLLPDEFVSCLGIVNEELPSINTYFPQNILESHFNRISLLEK
Description: Inhibition of interleukin-23 binding to human interleukin-23 receptor incubated for 2 hrs by competitive binding ELISA. For orientation: In an ELISA, binding on a coated surface is turned into a signal by an enzyme label.
One may read the IC50 as the concentration that gives 50% inhibition. The low end stands for inhibition by little substance, the high end for a need for much substance. The compound `CC(=O)N[C@@H](CS)C(=O)N[C@@H](C)C(=O)N[C@@H](CC(=O)O)C(=O)N[C@@H](Cc1c[nH]c2ccccc12)C(=O)N[C@H](C(=O)N[C@@H](CS)C(=O)N[C@@H](Cc1ccc(O)cc1)C(=O)N[C@@H](Cc1cccc2ccccc12)C(=O)N[C@H](C)C(=O)N[C@H](C(=O)N[C@@H](Cc1ccccc1)C(=O)NCC(N)=O)[C@@H](C)O)C(C)C` showed an IC50 greater than 1000 nM.
Turning to `CC(=O)N[C@@H](CS)C(=O)N[C@@H](CCCNC(=N)N)C(=O)N[C@@H](CC(=O)O)C(=O)N[C@@H](Cc1c[nH]c2ccccc12)C(=O)N[C@@H](CCC(N)=O)C(=O)N[C@@H](CS)C(=O)N[C@@H](Cc1ccc(O)cc1)C(=O)N[C@@H](Cc1c[nH]c2ccccc12)C(=O)N(C)[C@@H](CCCNC(=N)N)C(=O)N[C@@H](CCCCN)C(=O)N[C@@H](Cc1ccccc1)C(=O)NCC(=O)NCCOCCC(=O)N[C@H](CCCCN)C(N)=O`, the IC50 was greater than 1000 nM.
`CSCC[C@H](NC(=O)[C@H](CS)NC(=O)[C@H](Cc1cnc[nH]1)NC(=O)[C@@H](NC(=O)[C@H](CO)NC(=O)CNC(C)=O)C(C)C)C(=O)N[C@H](C(=O)N[C@@H](Cc1c[nH]c2ccccc12)C(=O)N[C@@H](CCC(=O)O)C(=O)N[C@@H](CS)C(=O)N[C@@H](Cc1ccc(O)cc1)C(=O)N[C@@H](Cc1c[nH]c2ccccc12)C(=O)N[C@@H](Cc1cnc[nH]1)C(=O)N[C@H](C(=O)N[C@@H](Cc1ccccc1)C(=O)NCC(N)=O)[C@@H](C)O)[C@@H](C)O` (Ac-GSVHCMTWECYWHTFG-NH2): the IC50 lay in the range of 500 to 1000 nM.
Take `CC(=O)N[C@@H](CS)C(=O)N[C@@H](C)C(=O)N[C@@H](CC(=O)O)C(=O)N[C@@H](Cc1c[nH]c2ccccc12)C(=O)N[C@H](C(=O)N[C@@H](CS)C(=O)N[C@@H](Cc1ccc(O)cc1)C(=O)N[C@@H](Cc1c[nH]c2ccccc12)C(=O)N[C@@H](Cc1cnc[nH]1)C(=O)N[C@H](C(=O)N[C@@H](Cc1ccccc1)C(=O)NCC(=O)NCCC(=O)N[C@H](CCCCN)C(=O)O)[C@@H](C)O)C(C)C`: the IC50 is less than 500 nM.
For the compound `CC(C)[C@H](NC(=O)[C@H](Cc1ccc(-c2ccccc2)cc1)NC(=O)[C@H](CC(=O)O)NC(=O)[C@H](C)NC(=O)[C@@H](N)CS)C(=O)N[C@@H](CS)C(=O)N[C@@H](Cc1ccc(O)cc1)C(=O)N[C@@H](Cc1c[nH]c2ccccc12)C(=O)N[C@@H](Cc1cnc[nH]1)C(=O)N[C@H](C(=O)N[C@@H](Cc1ccccc1)C(=O)NCC(N)=O)[C@@H](C)O`, the IC50 is greater than 1000 nM.
The compound `CC(C)[C@H](NC(=O)[C@H](Cc1c[nH]c2ccccc12)NC(=O)[C@H](CC(=O)O)NC(=O)[C@H](C)NC(=O)[C@@H](N)CS)C(=O)N[C@@H](CS)C(=O)N[C@@H](Cc1ccc(O)cc1)C(=O)N[C@@H](Cc1cccc2ccccc12)C(=O)N[C@@H](Cc1cnc[nH]1)C(=O)N[C@H](C(=O)N[C@H](Cc1ccccc1)C(=O)O)[C@@H](C)O` yielded an IC50 greater than 1000 nM.
In the case of `CC(=O)N[C@@H](CS)C(=O)N[C@@H](C)C(=O)N[C@@H](CC(=O)O)C(=O)N[C@@H](Cc1c[nH]c2ccccc12)C(=O)N[C@H](C(=O)N[C@@H](CS)C(=O)N[C@@H](Cc1ccc(O)cc1)C(=O)N[C@@H](Cc1c[nH]c2ccccc12)C(=O)N[C@@H](Cc1cnc[nH]1)C(=O)N[C@H](C(=O)N[C@@H](Cc1ccccc1)C(=O)NCC(=O)N[C@@H](C)C(=O)N1CCC[C@H]1C(=O)N[C@H](CCCCN)C(=O)O)[C@@H](C)O)C(C)C` it was 100 to 1000 nM; in that of `CC(C)[C@H](NC(=O)[C@H](Cc1cnc[nH]1)NC(=O)[C@H](Cc1c[nH]c2ccccc12)NC(=O)[C@H](Cc1ccc(O)cc1)NC(=O)[C@H](CS)NC(=O)[C@H](CCCNC(=N)N)NC(=O)[C@H](Cc1c[nH]c2ccccc12)NC(=O)[C@H](CC(=O)O)NC(=O)[C@H](CO)NC(=O)[C@@H](N)CS)C(=O)N[C@@H](Cc1ccccc1)C(=O)NCC(N)=O` (H-CSDWRCYWHVFG-NH2), greater than 1000 nM.
In the case of `CC(=O)NC1CC/C=C\CC(C(=O)N[C@@H](Cc2ccc(O)cc2)C(=O)N[C@@H](Cc2c[nH]c3ccccc23)C(=O)N[C@@H](CCCNC(=N)N)C(=O)N[C@@H](CCCCN)C(=O)N[C@@H](Cc2ccccc2)C(=O)NCC(=O)NCCOCC(=O)N[C@H](CCCCN)C(N)=O)NC(=O)[C@H](CCC(N)=O)NC(=O)[C@H](Cc2c[nH]c3ccccc23)NC(=O)[C@H]([C@@H](C)O)NC(=O)[C@H](CCCNC(=N)N)NC1=O` (some centres undefined) it was 100 to 1000 nM; in that of `CC(=O)N[C@@H](CS)C(=O)N[C@@H](CCC(N)=O)C(=O)N[C@H](C(=O)N[C@@H](CCC(=O)O)C(=O)N[C@@H](CCC(N)=O)C(=O)N[C@@H](CS)C(=O)N[C@@H](Cc1ccc(O)cc1)C(=O)N[C@@H](Cc1c[nH]c2ccccc12)C(=O)N[C@@H](CCC(C)C)C(=O)N[C@@H](CCC(=O)O)C(=O)N[C@@H](CC(N)=O)C(=O)NCC(N)=O)[C@@H](C)O` (Ac-CQTEQCYW[hLeu]ENG-NH2), greater than 10000 nM.
In the case of `CC(=O)N[C@@H](CS)C(=O)N[C@@H](C)C(=O)N[C@@H](CC(=O)O)C(=O)N[C@@H](Cc1c[nH]c2ccccc12)C(=O)N[C@H](C(=O)N[C@@H](CS)C(=O)N[C@@H](Cc1ccc(O)cc1)C(=O)N[C@@H](Cc1c[nH]c2ccccc12)C(=O)N[C@@H](Cc1cnc[nH]1)C(=O)N[C@H](C(=O)N[C@@H](Cc1ccccc1)C(=O)NCC(N)=O)[C@@H](C)O)C(C)C` it was greater than 1000 nM; in that of `CC(=O)N[C@@H](CS)C(=O)N[C@@H](C)C(=O)N[C@@H](CC(=O)O)C(=O)N[C@@H](Cc1c[nH]c2ccccc12)C(=O)N[C@H](C(=O)N[C@@H](CS)C(=O)N[C@@H](Cc1ccc(O)cc1)C(=O)N[C@@H](Cc1c[nH]c2ccccc12)C(=O)N[C@@H](Cc1cnc[nH]1)C(=O)N[C@H](C(=O)N[C@@H](Cc1ccccc1)C(=O)N[C@@H](CC(=O)O)C(=O)N[C@@H](CCCCNC(=O)COCC(=O)NCCCC[C@H](NC(=O)[C@H](CC(=O)O)NC(=O)[C@H](Cc1ccccc1)NC(=O)[C@@H](NC(=O)[C@H](Cc1cnc[nH]1)NC(=O)[C@H](Cc1c[nH]c2ccccc12)NC(=O)[C@H](Cc1ccc(O)cc1)NC(=O)[C@H](CS)NC(=O)[C@@H](NC(=O)[C@H](Cc1c[nH]c2ccccc12)NC(=O)[C@H](CC(=O)O)NC(=O)[C@H](C)NC(=O)[C@H](CS)NC(C)=O)C(C)C)[C@@H](C)O)C(=O)O)C(=O)O)[C@@H](C)O)C(C)C`, greater than 10000 nM.
Regarding `CC(=O)NCCCC[C@H](NC(=O)[C@](C)(CCCCN)NC(=O)[C@H](Cc1ccc2ccccc2c1)NC(=O)[C@H](Cc1cc(F)cc(F)c1)NC(=O)[C@@H](NC(=O)[C@H](CCC(N)=O)NC(=O)[C@H](Cc1c[nH]c2ccccc12)NC(=O)[C@@H](NC(=O)[C@H](CCC(N)=O)NC(=O)[C@@H](NC(C)=O)C(C)(C)S)[C@@H](C)O)C(C)(C)S)C(=O)N[C@@H](CC(N)=O)C(=O)NCC(N)=O`, the IC50 fell in the range of 100 to 1000 nM.
To `CC(=O)N[C@@H](CS)C(=O)N[C@@H](CCC(N)=O)C(=O)N[C@H](C(=O)N[C@@H](Cc1c[nH]c2ccccc12)C(=O)N[C@H](C(=O)N[C@@H](CS)C(=O)N[C@@H](Cc1ccc(O)cc1)C(=O)N[C@@H](Cc1c[nH]c2ccccc12)C(=O)N[C@@H](CCCNC(=N)N)C(=O)N[C@@H](CCC(=O)O)C(=O)N[C@@H](CC(N)=O)C(=O)NCC(=O)NCCOCC(=O)N[C@H](CCCCN)C(N)=O)C(C)C)[C@@H](C)O` belongs less than 500 nM; to `CC(=O)N[C@@H](CS)C(=O)N[C@@H](CCC(N)=O)C(=O)N[C@H](C(=O)N[C@@H](Cc1c[nH]c2ccccc12)C(=O)N[C@@H](CCC(N)=O)C(=O)N[C@@H](CS)C(=O)N[C@@H](Cc1ccc(O)cc1)C(=O)N[C@@H](Cc1c[nH]c2ccccc12)C(=O)N[C@@H](CCCNC(=N)N)C(=O)N[C@@H](CCC(=O)O)C(=O)N[C@@H](CC(N)=O)C(=O)NCC(N)=O)[C@@H](C)O` (Ac-CQTWQCYWRENG-NH2), less than 500 nM; to `CC(=O)NC1CCC/C=C\CC(C(=O)N[C@@H](Cc2ccc(O)cc2)C(=O)N[C@@H](Cc2c[nH]c3ccccc23)C(=O)N[C@@H](CCCNC(=N)N)C(=O)N[C@@H](CCCCN)C(=O)N[C@@H](Cc2ccccc2)C(=O)NCC(=O)NCCOCC(=O)N[C@H](CCCCN)C(N)=O)NC(=O)[C@H](CCC(N)=O)NC(=O)[C@H](Cc2c[nH]c3ccccc23)NC(=O)[C@H]([C@@H](C)O)NC(=O)[C@H](CCCNC(=N)N)NC1=O` (some centres undefined), 100 to 1000 nM.
In the case of `CC(=O)N[C@@H](CS)C(=O)N[C@@H](C)C(=O)N[C@@H](CC(=O)O)C(=O)N[C@@H](Cc1c[nH]c2ccccc12)C(=O)N[C@H](C(=O)N[C@@H](CS)C(=O)N[C@@H](Cc1ccc(O)cc1)C(=O)N[C@@H](Cc1c[nH]c2ccccc12)C(=O)N[C@@H](Cc1cnc[nH]1)C(=O)N[C@@H](CCCNC(=N)N)C(=O)N[C@@H](CO)C(=O)N[C@H](C(=O)NCC(=O)NCC(=O)N[C@@H](CCC(N)=O)C(=O)N[C@@H](Cc1cnc[nH]1)C(N)=O)[C@@H](C)O)C(C)C` (Ac-CADWVCYWHRSTGGQH-NH2) it was 500 to 1000 nM.
For `CC(=O)N[C@@H](CS)C(=O)N[C@@H](CCC(N)=O)C(=O)N[C@H](C(=O)N[C@@H](Cc1c[nH]c2ccccc12)C(=O)N[C@@H](CCC(N)=O)C(=O)N[C@@H](CS)C(=O)N[C@@H](Cc1ccc(O)cc1)C(=O)N[C@@H](Cc1c[nH]c2ccccc12)C(=O)N[C@@H](CCCNC(=N)N)C(=O)N[C@H](C(=O)N[C@@H](CC(N)=O)C(=O)NCC(=O)NCCOCC(=O)N[C@H](CCCCN)C(N)=O)[C@@H](C)O)[C@@H](C)O`, the IC50 was less than 500 nM.
To `CC(=O)N[C@@H](CS)C(=O)N[C@@H](CCC(N)=O)C(=O)N[C@H](C(=O)N[C@@H](Cc1c[nH]c2ccccc12)C(=O)N[C@@H](CCC(N)=O)C(=O)N[C@@H](CS)C(=O)N[C@@H](Cc1cnc[nH]1)C(=O)N[C@@H](Cc1c[nH]c2ccccc12)C(=O)N[C@@H](CCC(C)C)C(=O)N[C@@H](CCC(=O)O)C(=O)N[C@@H](CC(N)=O)C(=O)NCC(N)=O)[C@@H](C)O` belongs 6000 nM.
